Measured values as given in patent publication US5073572A, “Bioactive metabolites from cribrochalina vasculum” (Harbor Branch Oceanographic Institution, Inc., priority 1990, dated 1991).
Converted amounts (≈) assume the structure as drawn.

Key:
HT-29 colon tumor cells = assay: antiproliferative effect against HT-29 colon tumor cells (MTT); type: cell-based; conditions: human colon tumor cells, mean ± S.D., n in parentheses
Description: (§1) The crude ethanolic extract and essentially pure compound were tested for toxicity against murine P388 leukemia cells and cells derived from human colon (HT-29) and lung (A549) tumors. P388 cells obtained from Dr. J. Mayo, National Cancer Institute, Bethesda Md., were maintained in Roswell Park Memorial Institute (RPMI) medium 1640 supplemented with 10% horse serum. HT-29 and A-459 human tumor cells were obtained from the American Type Culture Collection (Rockville, Md.) and maintained in RPMI medium 1640 supplemented with 10% fetal bovine serum. All cell lines were cultured in plastic tissue culture flasks and kept in an incubator at 37° C. in humidified air containing 5% CO2. Antibiotic-free stock cultures of P388 cells were subcultured to 10^5 cells/ml by dilution in fresh growth medium at 2 to 3 day intervals. The mean generation time of primary P388 cultures was 14 to 17 hr. HT-29 and A549 cells were subcultured after dissociation with trypsin-EDTA at weekly intervals.
(§2) To assess the antiproliferative effects of agents against P388, HT-29, and A549 cells, 200 μl cultures (96-well tissue culture plates, Nunc, Denmark) were established at 1×10^5 cells/ml (4000 cells/cm^2 for HT-29 and A549) in drug-free medium or medium containing the crude extract at a final dilution of 1:500 of test compound at various concentrations. Solvent for all dilutions was methanol, which was removed from plates under vacuum. All experimental cultures were initiated in medium containing Gentamicin sulfate ([…]; Schering Corporation, Kenilworth, N.J.). After 48-h exposures, P388 cells were enumerated using 3-[4,5-Dimethylthiazol-2-yl]-2,5-diphenyltetrazolium bromide (MTT) as described below (Alley, M. C., et al.[1988] Cancer Res. 48:589).
(§3) To quantitate the effects on cell proliferation, 75 μl of warm growth medium containing 5 mg/ml MTT was added to each well and cultures were returned to the incubator for 90 minutes. To spectrophotometrically quantitate MTT, plates were centrifuged (900×g, 5 minutes), culture fluids removed by aspiration, and 200 μl of acidified isopropanol (2 ml concentrated HCl/liter isopropanol) added per well. The absorbance of the resulting solutions were measured at 570 nm with a plate reader (MR700 Microplate Reader, Dynatech, Laboratories, Chantilly, Va.). […] A linear relationship between tumor cell number and formazan produced was found over the range of cell densities observed in these experiments.

murine splenocytes = assay: two-way mixed lymphocyte reaction (MLR); type: cell-based; conditions: Mus musculus, Splenocyte, percentage of positive MLR control (no compound); for activity at 0.01 µg/well: 0.01 ug/well; for activity at 0.1 µg/well: 0.1 ug/well; for activity at 1 µg/well: 1 ug/well; for activity at 10 µg/well: 10 ug/well
Description: The crude ethanolic extract was tested in the two-way mixed lymphocyte reaction (MLR) and a CV-1 cytotoxicity assay at a 1X concentration of the crude extract, using murine splenocytes. Cellular proliferation was measured using incorporation of ^3 H-thymidine.
The pure compounds were tested for immunosuppressive effects in the MLR assay and for specific cytotoxicity effects in the lymphocyte viability (LCV) assay both using murine splenocytes. […] Responses were reported as a percent of the positive MLR or LCV control. As a general rule, a low MLR value combined with a high LCV value indicates immunosuppressive activity.
^a Twoway murine mixed lymphocyte response. Results are expressed as
percentage of the positive MLR control response (no compound).

P388 leukemia cells = assay: antiproliferative effect against P388 leukemia cells (MTT); type: cell-based; conditions: Mus musculus; murine P388 leukemia cells, 48-h exposure; mean ± S.D., n in parentheses
Description: as §1, §2, §3

A549 lung tumor cells = assay: antiproliferative effect against A549 lung tumor cells (MTT); type: cell-based; conditions: human lung tumor cells, mean ± S.D., n in parentheses
Description: as §1, §2, §3

[1] = lymphocyte viability (LCV) assay; type: cell-based, murine; conditions: mouse, splenocytes, percentage of positive LCV control (no compound)
Description: The pure compounds were tested for immunosuppressive effects in the MLR assay and for specific cytotoxicity effects in the lymphocyte viability (LCV) assay both using murine splenocytes. Cellular proliferation was determined using incorporation of ^3 H-thymidine and a modified form of the M. T. T. assay (Mosmann, T. [1983] "Rapid colorimetric assay for cellular growth and survival: Application to proliferation and cytotoxicity assays," J. Immunol. Methods, 65:55-63). Responses were reported as a percent of the positive MLR or LCV control. As a general rule, a low MLR value combined with a high LCV value indicates immunosuppressive activity.
^b Viability (LCV) of lymphocytes as measured by metabolism of M.T.T.
Results are expressed as a percentage of the positive LCV control respons

| Compound | IC50 (HT-29 colon tumor cells) | activity at 0.01 µg/well (murine splenocytes) | activity at 0.1 µg/well (murine splenocytes) | activity at 1 µg/well (murine splenocytes) | activity at 10 µg/well (murine splenocytes) | IC50 (P388 leukemia cells) | IC50 (A549 lung tumor cells) | viability ([1]; 0.01 ug/well) | viability ([1]; 0.1 ug/well) | viability ([1]; 1 ug/well) | viability ([1]; 10 ug/well) |
| --- | --- | --- | --- | --- | --- | --- | --- | --- | --- | --- | --- |
| C#CC(O)C=CCCCCCCCCCCCCCCC (stereo not drawn) [SP10098] | 1.66 ± 0.47 µg/mL (≈ 5.68 µM) | 24% | 0% | 0% | 0% | 1.21 ± 0.73 µg/mL (≈ 4.14 µM) | 1.6 ± 0.1 µg/mL (≈ 5.47 µM) | 80% | 61% | 21% | 2% |
| C#CC(O)C=CCCCCCCCCCCC(C)CCCC (stereo not drawn) [SP10100] | 0.86 ± 0.06 µg/mL (≈ 2.81 µM) | 21% | 0% | 0% | 0% | 1.58 ± 0.51 µg/mL (≈ 5.15 µM) | 1.56 ± 0.06 µg/mL (≈ 5.09 µM) | 78% | 42% | 12% | 8% |
| C#CC(O)C=CCCCCCCCCCC=CCCCCC(C)C (stereo not drawn) [SP10102] | 1.46 ± 0.06 µg/mL (≈ 4.39 µM) | 20% | 0% | 0% | 0% | 1.63 ± 0.29 µg/mL (≈ 4.9 µM) | 2.9 ± 0.34 µg/mL (≈ 8.72 µM) | 67% | 45% | 15% | 0% |
| C#CC(O)C=CCCCCCCCCCCCCCC(C)C (stereo not drawn) [SP10101] | 1.06 ± 0.11 µg/mL (≈ 3.46 µM) | 21% | 0% | 0% |  | 1.44 ± 0.28 µg/mL (≈ 4.7 µM) | 2.3 ± 0.7 µg/mL (≈ 7.5 µM) | 82% | 49% | 7% | 10% |
| C#CC(O)C=CCCCCCCCCCC=CCCCCCC (stereo not drawn) [SP10099] | 1.66 ± 0.15 µg/mL (≈ 5.21 µM) | 33% | 0% | 0% | 0% | 1.23 ± 0.53 µg/mL (≈ 3.86 µM) | 1.75 ± 0.06 µg/mL (≈ 5.49 µM) | 67% | 34% | 13% | 22% |
